The values that follow come from patent publication US4246270A, “3-Fluorobenzodiazepines and compositions and uses thereof” (E. I. Du Pont de Nemours and Company, priority 1976, dated 1981).

Read-outs that look alike come from different tables or passages of the source.

For series [1] the following is noted: warming in alcohol; cited from earlier work.
The test system of the next series is auditory pinna reflex. Put plainly: Auditory pinna reflex test (mouse). In kind it is in vivo. To be noted: 0.5 h, oral (intubated), 30 minutes. As to the method: (§1) Standard procedures for detecting and comparing the tranquilizer, muscle-relaxant, and sedative activity of compounds in this series for which there is a correlation with human efficacy are the following: pinna reflex tests, antipentylenetetrazole test, rat activity suppression test (RAST), muscle relaxant (anti-straub tail) test, and mouse activity suppression test (MAST).
(§2) Fasted female white mice, 5 per dose are intubated with drug at 4, 12, 36, 108 and 324 mg/kg in 1% Methocel®^- 1.25% Tween 80®, at 10 ml/kg. The auditory and tactile pinna are tested at 0.5, 2, 5 and 24 hours.
The mouse is placed on a horizontal bar 9 cm from a Galton whistle adjusted for 13 Kc. Failure to flatten the ears during one or 2 short bursts of sound constitutes loss of auditory pinna reflex.
(§3) Potency in the antipentylenetetrazole (PTZ), the MAST, and the RAST tests indicates a potent antianxiety agent. Great potency for blockade of the mouse auditory pinna reflex with little or no effect on tactile pinna reflex is characteristic of minor tranquilizers.

In a further series the test system is tactile pinna reflex. Kind of series: Tactile pinna reflex test (mouse). It counts as in vivo. The settings on record: 0.5 h, oral (intubated), 30 minutes. As to the method:
as §1, §2
The mouse is held by the tail and the hairs inside the right ear are touched by the fine wire stylus from a 27 gauge needle. Failure of the mouse to twitch or move the head constitutes loss of the tactile pinna reflex.
as §3

The test system of series [2] is PTZ-induced clonic convulsions. Kind of series: Antipentylenetetrazole (PTZ) test. It counts as in vivo. To be noted: mouse; for ED50: 0.5 h, oral (intubated), 30 minutes before PTZ 40 mg/kg iv, read-out: Anti-PTZ, mouse ED50. As to the method: as §1
Fasted female white mice, 10 per dose are intubated with drug in vehicle as above at doses such as 0, 1, 3, 9, 27 and 81 mg/kg. Thirty minutes later the mice are dosed intravenously with PTZ (Metrazol®^1) at 40 mg/kg (ED98 for clonic convulsions). Dosed animals which remain on a 4"×4" platform for 20 seconds are considered protected. Quantal ED50 's are calculated by the moving average method.
1 Original brand of pentylenetetrazole; sterile 10% aqueous solution for parenteral injection, Knoll Pharmaceutical Company.
as §3

In series [3] the test system is suppression of exploratory locomotor behavior by punishment. Kind of series: Mouse activity suppression test (MAST). It counts as in vivo. The settings on record: oral, footnote *ED20%.
Source text: as §1
The Mouse Activity Suppression Test (MAST) is a model system designed to detect compounds with possible anti-anxiety activity in humans. […] The punishment, an electric shock applied through the mouse's paws, quickly extinguishes normal behavior.
The test procedure is modified from Boissier, et al., European J. Pharm., 4, 145-151 (1968). Female white mice, fasted 16-22 hours, are randomly distributed to fiberglass holding boxes. Mice in groups of 10-20 are dosed orally and returned to their holding boxes until test time. Test drug suspensions or solutions are prepared by sonication in 1% Methocel®. Typical dose ranges include 0.5, 1, 2, and 4 mg/k or 1, 3, 9, 27, 81 mg/kg plus a vehicle control and are selected to include one dose at which an effect such as sedation, stimulation, muscle weakness or analgesia was seen.
The test apparatus is an opaque, black plastic box with a clear lid and a stainless steel grid floor. The floor of the test box is marked off into four squares of equal size.
After dosing, a mouse is gently place in one corner of the testing box and during the next minute each time the mouse makes a full crossing from one square section of the box to another the floor is electrified with 0.4 ma current for 2.0 seconds.
The number of shocks received by each mouse is recorded and the mean number of shocks/dose (X) is determined. When X drug at any dose is statistically greater than X controls (Student's t test), antagonism of suppression obtains and the drug is presumed to have anti-anxiety activity.
as §3

Series [4] relates to morphine-induced Straub tail. Kind of series: Muscle relaxant (anti-Straub tail) test. In kind it is in vivo. The settings on record: 0.5 h; mouse, oral (intubated), 30 minutes; blockade of morphine-induced Straub tail (53.7 mg/kg sc).
Source text: as §1
Fasted female white mice, 5 per dose are intubated with test drug. Twenty-five minutes later morphine sulfate is given subcutaneously at 53.7 mg/kg. Thirty minutes after test drug the mice are observed for presence of Straub tail. Quantal ED50 values for blockade of morphine-induced Straub tail are calculated.
as §3

For series [5], the system named is line crossings suppressed by shock. Put plainly: Rat activity suppression test (RAST). It counts as in vivo. To be noted: 0.5 h, oral (intubated), 30 minutes, dose which would increase crossings 50% over controls.
Source text: as §1
The test apparatus consists of a circular cage with lid and with a floor of electrifiable steel bars. D.C. shock current is supplied to the bars such that touching any 2 alternate bars shocks the rat. The floor is marked to yield 4 equal pie-shaped sectors.
Fasted male white rats, 10 per dose are intubated with drug as described above for mice. Thirty minutes after dosing a rat is placed in the test apparatus and is allowed 30 seconds to transverse 25% of the floor area after which he receives a shock. The rat is allowed 5 seconds to recover from the shock, then its "line crossings" are counted for 60 seconds. The mean number of crossings per rat for each dose are determined and are compared to the mean number of crossings of the vehicle treated controls. ED50 %, the dose which would increase the number of crossings 50% over controls, is determined graphically.
as §3

The conditions of series [6]: man and other animals; cited from earlier work.
[7] abbreviates: 0.5 h, 30 minutes, read-out: MAST, ED20%.

Regarding `O=C1Nc2ccc(Cl)cc2C(c2ccccc2)=NC1Cl` (stereo not drawn) [3,7-dichloro-5-phenyl-1,3-dihydro-2H-1,4-benzodiazepin-2-one], in series [1], the “stability (3-chloro derivative)” value was “extremely reactive: mere warming in alcohol caused decomposition”.

Regarding `CNC1=Nc2ccc(Cl)cc2C(c2ccccc2)=[N+]([O-])C1` [Chlorodiazepoxide, reference compound], the ED50 in the series on auditory pinna reflex was determined as 70 mg/kg; in the series with tactile pinna reflex, 320 mg/kg; in series [2], 7.5 mg/kg; in series [4], 1.9 mg/kg; in series [5], 6 mg/kg. Also, the ED20 in series [3] (setting [7]) amounted to 8.5 mg/kg.

As for `CN1C(=O)CN=C(c2ccccc2)c2cc(Cl)ccc21` [Diazepam, reference compound], the ED50 in the series on auditory pinna reflex came to 4 mg/kg; in the series on tactile pinna reflex it was 187 mg/kg; in series [2], 0.49 mg/kg; in series [4], 1 mg/kg; in series [5] it was 1.5 mg/kg. Further, the ED20 in series [3] (setting [7]) was found to be 1.1 mg/kg.

As to `O=C1Nc2ccc(Cl)cc2C(c2ccccc2)=NC1O` (stereo not drawn) [Oxazepam, reference compound], the ED50 was found to be 2.9 mg/kg in the series on auditory pinna reflex, 2 mg/kg in series [2], 0.26 mg/kg in series [4] and 2.5 mg/kg in series [5]. Besides, the ED20 in series [3] (setting [7]) was determined as 2.7 mg/kg.

As for `C1CCc2nnnn2CC1` [PTZ, pentylenetetrazole, reference compound], in series [2] (intravenous PTZ challenge), the ED98 is 40 mg/kg.

On to `CN1C(=O)C(F)N=C(c2ccccc2F)c2cc(Br)ccc21` (stereo not drawn) [X=Br, Y=F, Z=CH3, 3-Fluoro-7-bromo-5-(2-fluorophenyl)-1,3-dihydro-1-methyl-2H-1,4-benzodiazepin-2-one], for which the figures for the ED50 (in the series on auditory pinna reflex; in the series on tactile pinna reflex; in series [2]) were below 4 mg/kg, below 324 mg/kg and 0.06 mg/kg, respectively.

As to `O=C1Nc2ccc(Br)cc2C(c2ccccc2F)=NC1F` (stereo not drawn) [X=Br, Y=F, Z=H, 3-Fluoro-7-bromo-5-(2-fluorophenyl)-1,3-dihydro-2H-benzodiazepin-2-one], the ED50 was below 4 mg/kg in the series on auditory pinna reflex, 300 mg/kg with tactile pinna reflex and 0.12 mg/kg in series [2].

Consider `CN1C(=O)C(F)N=C(c2ccccc2)c2cc(Br)ccc21` (stereo not drawn) [X=Br, Y=H, Z=CH3, 3-Fluoro-7-bromo-1,3-dihydro-1-methyl-5-phenyl-2H-1,4-benzo-diazepin-2-one], for which the median effective dose (ED50) in the series on auditory pinna reflex amounted to 1.3 mg/kg; in the series on tactile pinna reflex, 300 mg/kg; in series [2] it was 0.22 mg/kg; in series [5] it was 1.7 mg/kg. In addition, the ED20 in series [3] (setting [7]) is 0.16 mg/kg.

Consider `O=C1Nc2ccc(Br)cc2C(c2ccccc2)=NC1F` (stereo not drawn) [X=Br, Y=H, Z=H, 3-Fluoro-7-bromo-1,3-dihydro-5-phenyl-2H-1,4-benzodiazepin-2-one], for which the ED50 in the series with auditory pinna reflex was determined as 1.2 mg/kg; in the series on tactile pinna reflex it was 100 mg/kg; in series [2], 0.74 mg/kg; in series [4], 0.05 mg/kg; in series [5], 0.15 mg/kg. For the same molecule, the ED20 in series [3] (setting [7]) worked out at 0.04 mg/kg.

Consider `CN1C(=O)C(F)N=C(c2ccccc2Cl)c2cc(Cl)ccc21` (stereo not drawn) [X=Cl, Y=Cl, Z=CH3, 3-Fluoro-7-chloro-5-(2-chlorophenyl)-1,3-dihydro-1-methyl-2H-1,4-benzodiazepin-2-one], for which the figures for the ED50 (in the series on auditory pinna reflex; in the series on tactile pinna reflex; in series [2]) were 60 mg/kg, above 324 mg/kg and 0.09 mg/kg, respectively.

Regarding `O=C1Nc2ccc(Cl)cc2C(c2ccccc2Cl)=NC1F` (stereo not drawn) [X=Cl, Y=Cl, Z=H, 3-Fluoro-7-chloro-5-(2-chlorophenyl)-1,3-dihydro-2H-1,4-benzodiazepin-2-one], the ED50 in the series with auditory pinna reflex is below 4 mg/kg; in the series with tactile pinna reflex it was above 324 mg/kg; in series [2], 0.34 mg/kg; in series [4], below 0.33 mg/kg. The ED20 in series [3] (setting [7]) was determined as 1.15 mg/kg.

With `CN1C(=O)C(F)N=C(c2ccccc2F)c2cc(Cl)ccc21` (stereo not drawn) [X=Cl, Y=F, Z=CH3, 3-Fluoro-1,3-dihydro-1-methyl-7-chloro-5-(2-fluorophenyl)-2H-1,4-benzodiazepin-2-one], the ED50 in the series on auditory pinna reflex stood at 7 mg/kg; in the series with tactile pinna reflex, 200 mg/kg; in series [2], 0.12 mg/kg; in series [4], 0.06 mg/kg; in series [5], 0.24 mg/kg. For the same molecule, the ED20 in series [3] (setting [7]) worked out at 0.05 mg/kg.

For `O=C1Nc2ccc(Cl)cc2C(c2ccccc2F)=NC1F` (stereo not drawn) [X=Cl, Y=F, Z=H, 3-Fluoro-1,3-dihydro-7-chloro-5-(2-fluorophenyl)-2H-1,4-benzodiazepin-2-one], the values for the ED50 (in the series with auditory pinna reflex; in the series with tactile pinna reflex; in series [2]) were 12 mg/kg, 200 mg/kg and 0.42 mg/kg, respectively. Further, the ED20 in series [3] (setting [7]) is 0.48 mg/kg.

On to `CCN1C(=O)C(F)N=C(c2ccccc2)c2cc(Cl)ccc21` (stereo not drawn) [X=Cl, Y=H, Z=C2 H5, 3-Fluoro-1,3-dihydro-1-ethyl-7-chloro-5-phenyl-2H-1,4-benzodiazepin-2-one], for which the ED50 in the series with auditory pinna reflex is 12 mg/kg; in the series with tactile pinna reflex, above 324 mg/kg; in series [2], 0.56 mg/kg; in series [4], below 0.24 mg/kg. Further, in series [3] (setting [7]), the ED20 was 0.45 mg/kg.

As to `C=CCN1C(=O)C(F)N=C(c2ccccc2)c2cc(Cl)ccc21` (stereo not drawn) [X=Cl, Y=H, Z=CH2 CHCH2, 3-Fluoro-1-(allyl)-7-chloro-5-phenyl-2H-1,4-benzodiazepin-2-one], the ED50 with auditory pinna reflex is 20 mg/kg; in the series with tactile pinna reflex, 100 mg/kg; in series [2] it was 6.1 mg/kg; in series [4] it was below 1 mg/kg. The ED20 in series [3] (setting [7]) amounted to 2.9 mg/kg.

As for `CN1C(=O)C(F)N=C(c2ccccc2)c2cc(Cl)ccc21` (stereo not drawn) [X=Cl, Y=H, Z=CH3, 3-Fluoro-1,3-dihydro-1-methyl-7-chloro-5-phenyl-2H-1,4-benzodiazepin-2-one], the ED50 is 5 mg/kg in the series on auditory pinna reflex; 121 mg/kg in the series on tactile pinna reflex; 0.18 mg/kg in series [2]; 0.25 mg/kg in series [4]; 0.45 mg/kg in series [5]. The ED20 in series [3] (setting [7]) is 0.25 mg/kg.

Turning to `O=C1Nc2ccc(Cl)cc2C(c2ccccc2)=NC1F` (stereo not drawn) [X=Cl, Y=H, Z=H, 3-Fluoro-1,3-dihydro-7-chloro-5-phenyl-2H-1,4-benzodiazepin-2-one], the results for the ED50 (in the series on auditory pinna reflex; in series [2]; in series [4]) were 2.6 mg/kg, 0.39 mg/kg and 0.1 mg/kg, respectively. Moreover, the ED20 in series [3] (1 h, 60 minutes (footnote d), read-out: MAST, ED20% (at 60 minutes)) worked out at 0.37 mg/kg.

As to `CNC(=O)N1C(=O)C(F)N=C(c2ccccc2)c2cc(Cl)ccc21` (stereo not drawn) [X=Cl, Y=H, Z=[drawing 57]], the ED50 with auditory pinna reflex is below 4 mg/kg; in the series on tactile pinna reflex, 36 mg/kg.

Consider `CCN(CC)CCN1C(=O)CN=C(c2ccccc2F)c2cc(Cl)ccc21` [flurazepam], for which, in series [6], the metabolism result is “metabolized in man and other animals by oxidative attack at the 3-position”.

Turning to `O=C1CN=C(c2ccccc2)c2cc([N+](=O)[O-])ccc2N1` [nitrazepam], the metabolism result in series [6] was “metabolized in man and other animals by oxidative attack at the 3-position”.

A word on the ED50: it is the midpoint of the dose-response relation.
